According to article PMC6864445, “New Molecular Insights into the Inhibition of Dipeptidyl Peptidase-4 by Natural Cyclic Peptide Oxytocin” (Molecules, 2019):

What was measured:
[1] = system: DPP4; conditions: cited from earlier work; for IC50: read-out: IC50 (uM), peptides as DPP4 inhibitors, Supplementary Table S1
[2] = molecular target: T1, human dipeptidyl peptidase-4 (DPP4) (Homo sapiens, UniProt P27487); assay: DPP4 inhibitor screening kit fluorescence assay (H-Gly-Pro-AMC cleavage); format: biochemical; conditions: n = 3
T1 construct: purchased Sigma Aldrich
T1 sequence (P27487 whole entry): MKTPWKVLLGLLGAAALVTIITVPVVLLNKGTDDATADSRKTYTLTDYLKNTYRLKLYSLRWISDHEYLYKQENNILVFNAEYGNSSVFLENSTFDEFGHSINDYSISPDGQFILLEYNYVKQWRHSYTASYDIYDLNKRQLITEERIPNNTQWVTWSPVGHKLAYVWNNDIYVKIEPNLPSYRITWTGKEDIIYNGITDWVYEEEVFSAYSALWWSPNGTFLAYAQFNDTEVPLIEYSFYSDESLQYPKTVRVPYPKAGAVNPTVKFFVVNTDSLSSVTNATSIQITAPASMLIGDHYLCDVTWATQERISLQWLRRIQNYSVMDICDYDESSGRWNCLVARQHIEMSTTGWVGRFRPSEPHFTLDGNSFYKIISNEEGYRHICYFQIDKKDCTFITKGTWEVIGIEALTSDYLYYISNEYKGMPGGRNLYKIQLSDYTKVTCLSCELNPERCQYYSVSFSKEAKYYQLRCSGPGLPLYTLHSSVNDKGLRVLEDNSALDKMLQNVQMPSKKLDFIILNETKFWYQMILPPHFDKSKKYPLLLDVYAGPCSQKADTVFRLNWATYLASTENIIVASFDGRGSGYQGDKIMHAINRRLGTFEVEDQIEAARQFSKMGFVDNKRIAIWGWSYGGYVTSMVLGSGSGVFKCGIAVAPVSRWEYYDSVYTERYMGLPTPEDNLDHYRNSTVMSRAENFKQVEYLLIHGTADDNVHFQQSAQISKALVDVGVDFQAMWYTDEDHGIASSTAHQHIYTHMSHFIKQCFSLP
Experimental: Oxytocin peptide was purchased from the company Parfarm S.A (District Federal, Mexico), and human dipeptidyl peptidase-4 inhibitor screening kit, Black-well 96 well plate for fluorescence assays were purchased from Sigma Aldrich (St. Louis, MO, USA).
The experimental studies were carried out using the human DPP4 inhibitor screening kit to validate the computational results. Briefly, the pure protein DPP4 cleaves non-fluorescence substrate H-Gly-Pro-AMC and releases fluorescence product AMC whose fluorescence emissions, λex = 360 nm and λem = 460 nm on each well, were recorded in a kinetic mode for 30 min using microplate reader Thermo Scientific Varioskan Flash Multimode Reader by Thermo Scientific. The relative percent of inhibition was calculated using Equation (1), where df/dt denotes changes in fluorescence with time. The graphs were plotted for all experiments (n = 3) using Graph Pad software. All groups were compared with p < 0.05 as statistically significant. To obtain the p-value, an ordinary one-way ANOVA unpaired t-test was applied using Graph Pad software (San Diego, CA, USA). All the data in graphs are expressed as mean ± S.D:(1) % Relative inhibition=(df/dt)DPP4 enzyme−(df/dt)(DPP4−OXT peptide)/(df/dt)DPP4 enzyme×100

Compound	IC50 [1] [µM]	further results
GPGA	41.9	
IPAVF	44.7	
Diprotin A	2.9	IC50 of DPP4 ([1]; peptide isolated from culture of Bacillus cereus): 2900 µg/mL
IPIY	35.2	
FPGPIPD	260	
LPLPL	358	
IPIQY	26.7	
YPYY	208	
PGPIHDS	1000	
LPYPY	90.8	
LPQNIPP	160	
CC[C@H](C)[C@@H]1NC(=O)[C@H](Cc2ccc(O)cc2)NC(=O)[C@@H](N)CSSC[C@@H](C(=O)N2CCC[C@H]2C(=O)N[C@@H](CC(C)C)C(=O)NCC(N)=O)NC(=O)[C@H](CC(N)=O)NC(=O)[C@H](CCC(N)=O)NC1=O [oxytocin]		inhibition at 0.002 µM ([2]; 2 nM oxytocin, mean, read-out: relative percent inhibition of DPP4): 6.3%; inhibition at 0.019 µM ([2]; 19 nM oxytocin, mean, read-out: relative percent inhibition of DPP4): 44.5%; inhibition at 0.28037 µM ([2]; 280.37 nM oxytocin, mean, read-out: relative percent inhibition of DPP4): 61.6%; inhibition at 0.85047 µM ([2]; 850.47 nM oxytocin, mean, read-out: relative percent inhibition of DPP4): 75.4%; inhibition at 1.6 µM ([2]; 1600 nM oxytocin, mean, read-out: relative percent inhibition of DPP4): 81.2%; IC50 ([2]; fluorescence assay, substrate H-Gly-Pro-AMC, λex 360 nm / λem 460 nm, kinetic mode 30 min, dose-response curve in Figure S1, read-out: inhibitory concentration IC50 of DPP4): 0.111 µM
GPAG	41.1	
